≈ marks a conversion by molar mass, not a printed value. Calls of active or inactive are those of the source. The rule behind the calls is not given here.
Key:
[1] = tested on: Oryctolagus cuniculus; test: Toxicity in topically dosed rabbit assessed as skin irritation by measuring behavioral abnormalities measured up to 7 days post dose; format: organism-based; settings: in vivo, topical_or_ocular, 168 h
[2] = tested on: Oryctolagus cuniculus; test: Toxicity in topically applied rabbit assessed as skin irritation measured up to 14 days post dose; settings: in vivo, topical_or_ocular, 336 h
[3] = tested on: Staphylococcus epidermidis; test: Induction of cytoplasmic membrane permeabilization in Staphylococcus epidermidis 8700/B assessed as increase in propidium iodide fluorescence intensity at 5 mg/L by spectrofluorometric analysis; format: functional
[4] = tested on: TERT-RPE1; test: Induction of apoptosis in human RPE1 cells assessed as caspase 3/7 activation up to 80 mg/L after 4 hrs by caspase-Glo 3/7 luminescent assay; format: cell-based; settings: tert-rpe1, 4 h
[5] = tested on: Bacillus subtilis; test: Antibacterial activity against Bacillus subtilis assessed as inhibition of peptidoglycan synthesis at 2.5 mg/L after 50 mins by [3H]-N-acetylglucosamine incorporation assay; format: functional
[6] = tested on: Pseudomonas aeruginosa; test: Antibacterial activity against Pseudomonas aeruginosa CCM 3955 after 24 hrs by microdilution method; format: functional; settings: CCM 3955, 24 h
[7] = tested on: TERT-RPE1; test: Cytotoxicity against human RPE1 cells assessed as disruption of cell membrane integrity after 4 hrs by CytoTox-ONE-based assay; settings: tert-rpe1, 4 h
[8] = tested on: Bacillus subtilis; test: Antibacterial activity against Bacillus subtilis assessed as inhibition of protein synthesis at 2.5 mg/L after 50 mins by [35S]-methionine incorporation assay; format: functional
[9] = tested on: Burkholderia multivorans; test: Antibacterial activity against Burkholderia multivorans after 24 hrs by microdilution method; format: functional
[10] = tested on: HepG2; test: Cytotoxicity against human HepG2 cells assessed as reduction in cell viability after 48 hrs by ATPlite reagent based assay; settings: hepg2, 48 h
[11] = tested on: Enterococcus faecium; test: Antibacterial activity against vancomycin-resistant Enterococcus faecium 419/ana clinical isolates after 24 hrs by microdilution method; format: functional
[12] = tested on: Escherichia coli; test: Bactericidal activity against Escherichia coli CCM 3954 assessed as bacterial count at 25 mg/L up to 6 hrs by time kill assay; format: functional
[13] = tested on: Escherichia coli; test: Antibacterial activity against Escherichia coli 16702 after 24 hrs by microdilution method; format: functional; settings: Escherichia coli, 16702, 24 h
[14] = tested on: BJ; test: Cytotoxicity against human BJ cells assessed as reduction in cell viability after 48 hrs by ATPlite reagent based assay
[15] = tested on: Bacillus subtilis; test: Antibacterial activity against Bacillus subtilis assessed as rupture of cell envelope at 10 mg/L after 10 mins by scanning electron microscopic analysis; format: functional

## CCCCCCCCCCCCCCOP(=O)(CCN(CCCN)CCCN)OC[C@H]1O[C@@H](n2ccc(=O)[nH]c2=O)[C@H](O)[C@@H]1O (stereo not given in full)
[1]
  Activity: Non-Toxic
[2]
  Activity: Non-Toxic
[3]
  Activity: Active
[4]
  Activity: Non-Toxic
[5]
  inhibition: inactive
[6]
  MIC: 0.78 µg/mL (≈ 1.18 µM)
[7]
  Activity: Non-Toxic
[8]
  inhibition: inactive
[9]
  MIC: 50 µg/mL (≈ 75.5 µM)
[10]
  Activity: 40.3 mg/L
[11]
  MIC: 100 µg/mL (≈ 151 µM)
[12]
  Activity: 0
[13]
  MIC: 3.13 µg/mL (≈ 4.73 µM)
[14]
  Activity: 30.7 mg/L
[15]
  Activity: Active
